Measured values published in ChEMBL document CHEMBL1158757, “Ophiocerins A-D and ophioceric acid: tetrahydropyran derivatives and an africane sesquiterpenoid from the freshwater aquatic fungus Ophioceras venezuelense” (J Nat Prod, 2005).
The source made the active and inactive calls.

Legend:
Assay type in all cases: functional, organism-based
Candida albicans = test: Antifungal activity against Candida albicans at 200 ug/disk
Staphylococcus aureus = test: Antibacterial activity against Staphylococcus aureus at 200 ug/disk
Escherichia coli = test: Antimicrobial activity against Escherichia coli at 200 ug/disk

Measured: Activity

CC1=C2CC(C)(C)C[C@H]3C[C@@]3(C(=O)O)[C@@H]2CC1=O
inactive: all assays above

C[C@@H]1C[C@H](O)[C@@H](O)CO1
inactive: all assays above

C/C=C\C(=O)O[C@@H]1[C@H](O)[C@@H](O)CO[C@@H]1C
inactive: all assays above

C[C@@H]1C[C@@H](O)[C@@H](O)CO1
inactive: all assays above

C[C@@H]1C[C@@H](O)[C@H](O)CO1
inactive: all assays above
